Experimental data as given in US8796023B2, “Peptide nanostructures containing end-capping modified peptides and methods of generating and using the same” (Ramot at Tel-Aviv University Ltd., priority 2004, dated 2014).
Read-outs that look alike come from different tables or passages of the source. Residues, ends and D or L forms follow the SMILES beside them. *: point of attachment. Fmoc = O=C(OCC1c2ccccc2-c2ccccc21)*; Cbz = O=C(OCc1ccccc1)*; Boc = CC(C)(C)OC(=O)*

How the values were obtained:
[1] = same conditions, per WO 2004/052773; cited from earlier work
[2] = Self-assembly of end-capping modified diphenylalanine peptides, viewed by SEM/TEM; type: physicochemical; conditions: for structures formed by self-assembly (morphology): HFIP stock diluted in ddH2O, SEM/TEM/AFM
Description: (§1) Materials—End capping modified diphenylalanine peptides, presented in Table 3 hereinbelow, were purchase from Bachem (Bubendorf, Switzerland). Fresh stock solutions of the peptides were prepared by dissolving the lyophilized form of the peptides in 1,1,1,3,3,3-hexafluoro-2-propanol (HFIP, Sigma) at a concentration of 100 mg/ml. To avoid any pre-aggregation, fresh stock solutions were prepared for each experiment. The cyclo-Phe-Phe peptide (Peptide 8) was dissolved in HFIP to a concentration of 25 mg/ml and was subjected to ultrasound until a clear solution was obtained. The peptides stock solutions were diluted into a final concentration of 2 mg/ml in ddH2O. The NH2-Phe-Phe-NH2 peptide (Peptide 3) was diluted into a final concentration of 10 mg/ml in ddH2O.
Scanning electron microscopy (SEM) —Immediately after dilution in ddH2O, peptide solution was allowed to dry at room temperature over glass cover slip and coated with gold. Scanning electron microscopy images were obtained using a JSM JEOL 6300 SEM operating at 5 kV.
Transmission Electron microscopy (TEM) —Samples were placed on a 200 mesh copper grid, covered by carbon stabilized formvar film. After 1 minute excess fluid was removed and the grid was thereafter negatively stained with 2% uranyl acetate in water. After 2 minutes, excess fluid was removed from the grid. The samples were viewed in JEOL 1200EX electron microscope operating at 80 kV.
High resolution transmission electron microscopy—Samples were viewed using a Philips Tecnai F20 Field Emission Gun electron microscope operating at 200 kV. EDX analysis was performed with EDAX detector.
High resolution scanning electron microscopy—HRSEM grids were viewed using a JSM-6700 field emission scanning electron microscope equipped with a cold field emission gun operating at 1 kV.

[3] = Atomic force microscope (AFM) imaging of the peptide nanostructures; type: physicochemical; conditions: tapping mode, deposited on mica
Description: Atomic Force Microscope (AFM) imaging—The peptide sample solution was diluted again in ddH2O to a concentration of 1 mg/ml. Then the peptide solution was placed on mica grade and dried in vacuum. Dried sample was analyzed using Molecular Imaging PicoSPM II system in tapping mode.

[4] = Fourier transform infrared spectroscopy of the self-assembled structures; type: physicochemical; conditions: FT-IR amide-I region
Description: Fourier Transform Infrared Spectroscopy—Infrared spectra were recorded using a Nicolet Nexus 470 FT-IR spectrometer with a deuterated triglycine sulfate (DTGS) detector. Peptide solution taken from the abovementioned SEM assays were deposited on a CaF2 plate and dried under reduced pressure. The peptide deposits were resuspended with D2O and subsequently dried to form thin films. The resuspension procedure was repeated twice to ensure maximal hydrogen to deuterium exchange. The measurements […] a 4 cm^−1 resolution and averaging of 2000 scans. The transmittance minimal values were determined by the OMNIC analysis program (Nicolet).

[5] = Dissolving the peptides for stock solutions; type: physicochemical; conditions: in water or in fluoroalcohols
Description: as §1

Compound | structures formed by self-assembly (morphology) [2] | molecular conformation of the self-assembled structures [4] | also measured
NC(Cc1ccccc1)C(=O)NC(Cc1ccccc1)C(=O)O (stereo not drawn) [Peptide 1, NH2-Phe-Phe-COOH] (H-Phe-Phe-OH; configuration not given here) |  |  | structures formed by self-assembly (morphology) [1]: formation of nanotubes
CC(=O)NC(Cc1ccccc1)C(=O)NC(Cc1ccccc1)C(N)=O (stereo not drawn) [Peptide 2, Ac-Phe-Phe-NH2] (Ac-Phe-Phe-NH2; configuration not given here) | organized and regular tubular structures | β-sheet conformation | diameters of the tubular structures ([2]; SEM, within minutes after dilution of peptide stock into aqueous solution): few microns to less than 100 nanometers; height of nanostructures at the Z-range [3]: about 100 nm
NC(=O)C(Cc1ccccc1)NC(=O)C(N)Cc1ccccc1 (stereo not drawn) [Peptide 3, NH2-Phe-Phe-NH2] (H-Phe-Phe-NH2; configuration not given here) | tubular structures | antiparallel β-sheet conformation | 
CC(=O)NC(Cc1ccccc1)C(=O)NC(Cc1ccccc1)C(=O)O (stereo not drawn) [Peptide 4, Ac-Phe-Phe-COOH] (Ac-Phe-Phe-OH; configuration not given here) |  |  | dissolution [5]: did not dissolve
cyclo-Phe-Phe [Peptide 8] | bundles of tubular structures | either an α-helix or a β-turn conformation | 

Continued, in another order:

structures formed by self-assembly (morphology) [2] | molecular conformation of the self-assembled structures [4] | Compound | also measured
highly ordered tubular structures | α-helix conformation | CC(C)(C)OC(=O)NC(Cc1ccccc1)C(=O)NC(Cc1ccccc1)C(=O)O (stereo not drawn) [Peptide 5, Boc-Phe-Phe-COOH] (Boc-Phe-Phe-OH; configuration not given here) | 
fibrillar structures |  | O=C(NC(Cc1ccccc1)C(=O)NC(Cc1ccccc1)C(=O)O)OCC1c2ccccc2-c2ccccc21 (stereo not drawn) [Peptide 6, Fmoc-Phe-Phe-COOH] (Fmoc-Phe-Phe-OH; configuration not given here) | 
fibrillar structures | antiparallel β-sheet conformation | O=C(NC(Cc1ccccc1)C(=O)NC(Cc1ccccc1)C(=O)O)OCc1ccccc1 (stereo not drawn) [Peptide 7, Cbz-Phe-Phe-COOH] (Cbz-Phe-Phe-OH; configuration not given here) | 
